Measurements published in ChEMBL document CHEMBL3621198, “Probing cytochrome P450-mediated activation with a truncated azinomycin analogue” (Medchemcomm, 2015).
The source made the active and inactive calls. No cut-off for these calls is given here.

Columns and labels:
[1] = system: CHO; assay: Cytotoxicity against wild type CHO cells assessed as growth inhibition after 96 hrs by MTT assay; assay type: functional, cell-based; settings: Cricetulus griseus
[2] = system: CHO; assay: Cytotoxicity against CHO cells transfected with CYP1A1 assessed as growth inhibition after 96 hrs by MTT assay; assay type: functional, cell-based; settings: Cricetulus griseus
[3] = target: T1, Cytochrome P450 3A4 (Homo sapiens, UniProt P08684); assay: Drug level in presence of CYP3A4 (unknown origin) expressed in bactosomes treated with 1-amino-3-methyl-1-oxobut-3-en-2-yl 3-methoxy-5-methyl-1-naphthoate measured for 180 mins by LC/MS/MS analysis; assay type: ADME; settings: recombinant enzyme, 3 h
T1 sequence (P08684 whole entry): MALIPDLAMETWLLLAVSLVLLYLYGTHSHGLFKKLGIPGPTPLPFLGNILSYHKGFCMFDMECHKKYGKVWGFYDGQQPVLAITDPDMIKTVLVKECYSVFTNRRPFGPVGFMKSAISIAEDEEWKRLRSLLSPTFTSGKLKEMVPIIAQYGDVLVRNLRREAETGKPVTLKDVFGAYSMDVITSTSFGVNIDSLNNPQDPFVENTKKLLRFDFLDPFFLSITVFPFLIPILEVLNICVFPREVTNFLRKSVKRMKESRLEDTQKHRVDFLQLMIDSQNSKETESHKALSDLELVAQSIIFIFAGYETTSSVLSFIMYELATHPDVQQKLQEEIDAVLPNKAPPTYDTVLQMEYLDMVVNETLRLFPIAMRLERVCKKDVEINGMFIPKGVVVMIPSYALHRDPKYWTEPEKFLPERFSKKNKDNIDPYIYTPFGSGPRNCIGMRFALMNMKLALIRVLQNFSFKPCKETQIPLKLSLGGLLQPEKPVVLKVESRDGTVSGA

[4] = target: T2, Cytochrome P450 1B1 (Homo sapiens, UniProt Q16678); assay: Drug level in presence of CYP1B1 (unknown origin) expressed in bactosomes treated with 1-amino-3-methyl-1-oxobut-3-en-2-yl 3-methoxy-5-methyl-1-naphthoate measured for 180 mins by LC/MS/MS analysis; assay type: ADME; settings: recombinant enzyme, 3 h
T2 sequence (Q16678 whole entry): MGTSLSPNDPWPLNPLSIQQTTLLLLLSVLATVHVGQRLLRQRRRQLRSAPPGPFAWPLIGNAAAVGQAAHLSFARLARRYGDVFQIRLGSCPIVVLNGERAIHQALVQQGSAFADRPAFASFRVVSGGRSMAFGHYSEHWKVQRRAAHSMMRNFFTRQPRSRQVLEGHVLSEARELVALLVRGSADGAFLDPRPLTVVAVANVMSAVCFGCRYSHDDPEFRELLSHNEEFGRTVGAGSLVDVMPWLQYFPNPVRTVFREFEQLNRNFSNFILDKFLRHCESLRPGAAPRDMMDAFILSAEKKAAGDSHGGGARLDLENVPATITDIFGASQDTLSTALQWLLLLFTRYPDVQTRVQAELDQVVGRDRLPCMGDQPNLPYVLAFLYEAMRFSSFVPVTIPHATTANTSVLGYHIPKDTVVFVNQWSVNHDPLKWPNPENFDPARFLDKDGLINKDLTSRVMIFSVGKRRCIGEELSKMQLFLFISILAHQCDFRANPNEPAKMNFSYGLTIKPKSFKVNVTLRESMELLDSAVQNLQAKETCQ

[5] = system: CHO; assay: Induction of DNA damage in wild type CHO cells assessed as DNA single strand breaks at 50 uM after 1 hr by alkaline comet assay in absence of CYP3A4 expressed in bactosomes; assay type: functional, cell-based; settings: Cricetulus griseus
[6] = system: CHO; assay: Induction of DNA damage in wild type CHO cells assessed as DNA interstrand cross-links by measuring decrease in mean tail moment at 50 uM after 1 hr by alkaline comet assay in presence of CYP3A4 expressed in bactosomes; assay type: functional, cell-based; settings: Cricetulus griseus
[7] = system: CHO; assay: Cytotoxicity against wild type CHO cells assessed as growth inhibition preincubated with CYP3A4 expressed in bactosomes for 1 hr followed by cell addition measured after 96 hrs by MTT assay; assay type: functional, cell-based; settings: Cricetulus griseus
[8] = system: CHO; assay: Potentiation factor, ratio of IC50 for wild type CHO cells in absence of CYP1A1 expressed in bactosomes to IC50 for wild type CHO cells in presence of CYP1A1 expressed in bactosomes; assay type: functional, Cricetulus griseus
[9] = system: CHO; assay: Potentiation factor, ratio of IC50 for wild type CHO cells in absence of CYP3A4 expressed in bactosomes to IC50 for wild type CHO cells in presence of CYP3A4 expressed in bactosomes; assay type: functional, Cricetulus griseus
[10] = target: T3, Cytochrome P450 1A1 (Homo sapiens, UniProt P04798); assay: Drug metabolism assessed as CYP1A1 (unknown origin) expressed in bactosomes-mediated (1R)-2-amino-1-(2-methyloxiran-2-yl)-2-oxoethyl 3-methoxy-5-methyl-1-naphthoate formation measured for 180 mins by LC/MS/MS analysis; assay type: ADME; settings: recombinant enzyme, 3 h
T3 sequence (P04798 whole entry): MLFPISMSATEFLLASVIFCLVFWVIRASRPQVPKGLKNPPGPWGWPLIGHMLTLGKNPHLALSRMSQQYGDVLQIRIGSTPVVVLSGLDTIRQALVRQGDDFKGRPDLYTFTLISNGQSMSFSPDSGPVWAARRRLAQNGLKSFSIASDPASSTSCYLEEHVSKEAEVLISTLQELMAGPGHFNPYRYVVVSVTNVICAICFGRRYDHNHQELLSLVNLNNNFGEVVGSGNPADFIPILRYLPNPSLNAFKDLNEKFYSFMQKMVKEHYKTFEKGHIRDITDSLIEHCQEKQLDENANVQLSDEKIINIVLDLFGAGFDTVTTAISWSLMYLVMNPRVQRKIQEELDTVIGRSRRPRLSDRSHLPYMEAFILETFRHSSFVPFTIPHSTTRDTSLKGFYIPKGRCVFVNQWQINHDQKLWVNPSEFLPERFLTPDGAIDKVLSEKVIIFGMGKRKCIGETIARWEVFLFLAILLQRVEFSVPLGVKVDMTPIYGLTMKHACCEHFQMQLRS

[11] = system: CHO; assay: Cytotoxicity against wild type CHO cells assessed as growth inhibition preincubated with CYP1A1 expressed in bactosomes for 1 hr followed by cell addition measured after 96 hrs by MTT assay; assay type: functional, cell-based; settings: Cricetulus griseus
[12] = system: CHO; assay: Cytotoxicity against wild type CHO cells assessed as growth inhibition preincubated with CYP1A2 expressed in bactosomes for 1 hr followed by cell addition measured after 96 hrs by MTT assay; assay type: functional, cell-based; settings: Cricetulus griseus
[13] = system: CHO; assay: Cytotoxicity against wild type CHO cells assessed as growth inhibition preincubated with CYP1B1 expressed in bactosomes for 1 hr followed by cell addition measured after 96 hrs by MTT assay; assay type: functional, cell-based; settings: Cricetulus griseus
[14] = system: CHO; assay: Cytotoxicity against wild type CHO cells assessed as growth inhibition preincubated with CYP2D6 expressed in bactosomes for 1 hr followed by cell addition measured after 96 hrs by MTT assay; assay type: functional, cell-based; settings: Cricetulus griseus
[15] = system: CHO; assay: Potentiation factor, ratio of IC50 for wild type CHO cells in absence of CYP1A2 expressed in bactosomes to IC50 for wild type CHO cells in presence of CYP1A2 expressed in bactosomes; assay type: functional, Cricetulus griseus
[16] = system: CHO; assay: Potentiation factor, ratio of IC50 for wild type CHO cells in absence of CYP1B1 expressed in bactosomes to IC50 for wild type CHO cells in presence of CYP1B1 expressed in bactosomes; assay type: functional, Cricetulus griseus
[17] = system: CHO; assay: Potentiation factor, ratio of IC50 for wild type CHO cells in absence of CYP2D6 expressed in bactosomes to IC50 for wild type CHO cells in presence of CYP2D6 expressed in bactosomes; assay type: functional, Cricetulus griseus
[18] = system: CHO; assay: Induction of DNA damage in wild type CHO cells assessed as DNA single strand breaks at 50 uM after 1 hr by alkaline comet assay in presence of CYP3A4 expressed in bactosomes; assay type: functional, cell-based; settings: Cricetulus griseus
[19] = system: CHO; assay: Induction of DNA damage in wild type CHO cells assessed as DNA double strand breaks by measuring increase in mean tail moment at 50 uM after 1 hr by neutral comet assay in absence of CYP3A4 expressed in bactosomes; assay type: functional, cell-based; settings: Cricetulus griseus
[20] = system: CHO; assay: Induction of DNA damage in wild type CHO cells assessed as DNA double strand breaks by measuring increase in mean tail moment at 50 uM after 1 hr by neutral comet assay in presence of CYP3A4 expressed in bactosomes; assay type: functional, cell-based; settings: Cricetulus griseus
[21] = system: CHO; assay: Induction of DNA damage in wild type CHO cells assessed as DNA interstrand cross-links by measuring decrease in mean tail moment at 50 uM after 1 hr by alkaline comet assay in absence of CYP3A4 bactosomes; assay type: functional, cell-based; settings: Cricetulus griseus
[22] = system: SW480; assay: Cytotoxicity against human SW480 cells transfected with CYP2W1 assessed as growth inhibition at 0.001 to 100 uM after 96 hrs by MTT assay; assay type: functional, cell-based
[23] = system: SGC-7901; assay: Cytotoxicity against human SGC7901 cells expressing CYP1A1 mRNA assessed as growth inhibition after 96 hrs by MTT assay; assay type: functional, cell-based
[24] = system: SGC-7901; assay: Cytotoxicity against human SGC7901 cells expressing CYP3A4 mRNA assessed as growth inhibition after 96 hrs by MTT assay; assay type: functional, cell-based
[25] = system: MKN-45; assay: Cytotoxicity against human MKN45 cells expressing CYP1A1 mRNA assessed as growth inhibition after 96 hrs by MTT assay; assay type: functional, cell-based
[26] = system: MKN-45; assay: Cytotoxicity against human MKN45 cells expressing CYP3A4 mRNA assessed as growth inhibition after 96 hrs by MTT assay; assay type: functional, cell-based
[27] = system: SGC-7901; assay: Cytotoxicity against human SGC7901 cells expressing CYP1A1 protein assessed as growth inhibition after 96 hrs by MTT assay; assay type: functional, cell-based
[28] = system: SGC-7901; assay: Cytotoxicity against human SGC7901 cells expressing CYP3A4 protein assessed as growth inhibition after 96 hrs by MTT assay; assay type: functional, cell-based
[29] = system: MKN-45; assay: Cytotoxicity against human MKN45 cells expressing CYP1A1 protein assessed as growth inhibition after 96 hrs by MTT assay; assay type: functional, cell-based
[30] = system: MKN-45; assay: Cytotoxicity against human MKN45 cells expressing CYP3A4 protein assessed as growth inhibition after 96 hrs by MTT assay; assay type: functional, cell-based
[31] = target: T1, Cytochrome P450 3A4; assay: Drug metabolism assessed as CYP3A4 (unknown origin) expressed in bactosomes-mediated (1S)-2-amino-1-(2-methyloxiran-2-yl)-2-oxoethyl 3-methoxy-5-methyl-1-naphthoate formation measured for 180 mins by LC/MS/MS analysis; assay type: ADME; settings: recombinant enzyme, 3 h
[32] = target: T2, Cytochrome P450 1B1; assay: Drug metabolism assessed as CYP1B1 (unknown origin) expressed in bactosomes-mediated (1R)-2-amino-1-(2-methyloxiran-2-yl)-2-oxoethyl 3-methoxy-5-methyl-1-naphthoate/(1S)-2-amino-1-(2-methyloxiran-2-yl)-2-oxoethyl 3-methoxy-5-methyl-1-naphthoate formation measured for 180 mins by LC/MS/MS analysis; assay type: ADME; settings: recombinant enzyme, 3 h
[33] = target: T3, Cytochrome P450 1A1; assay: Drug level in presence of CYP1A1 (unknown origin) expressed in bactosomes treated with 1-amino-3-methyl-1-oxobut-3-en-2-yl 3-methoxy-5-methyl-1-naphthoate measured for 180 mins by LC/MS/MS analysis; assay type: ADME; settings: recombinant enzyme, 3 h

With `COc1ccc2c(OC)ccc(C(=O)O[C@@H](C(N)=O)C3(C)CO3)c2c1` (some centres not stated) the IC50 [1] was 3 µM and the IC50 [2] was 9 µM.
With `COc1cc(C(=O)O[C@H](C(N)=O)C2(C)CO2)c2cccc(C)c2c1` (some centres not stated) the IC50 [1] was 2.8 µM, the IC50 [2] was 3.2 µM and the Drug metabolism [3] was “metabolite_detected”. The Drug metabolism [4] was “metabolite_detected”.
`C=C(C)[C@@H](OC(=O)c1cc(OC)cc2c(C)cccc12)C(N)=O` was tested, and the Activity [5] was “inactive”, the Activity [6] was “Active” and the IC50 [7] was 3.34 µM. The “Ratio IC50” value [8] was 5.8, the “Ratio IC50” value [9] was 24.4 and the Drug metabolism [10] was “metabolite_detected”. For the same compound, the IC50 [1] was 81.6 µM, the IC50 [2] was 6.3 µM and the IC50 [11] was 14.2 µM. It also gave an IC50 [12] of 20.3 µM, an IC50 [13] of 11.8 µM and an IC50 [14] of 28.3 µM. The “Ratio IC50” value [15] was 4, the “Ratio IC50” value [16] was 7 and the “Ratio IC50” value [17] was 2.9. The Activity [18] was “Active”, the Activity [19] was “inactive” and the Activity [20] was “inactive”. For the same compound, the Activity [21] was “inactive”, the “growth inhibition (GI)” value [22] was “inactive” and the “growth inhibition (GI)” value [23] was “Dose-dependent effect”. For the same compound, the “growth inhibition (GI)” value [24] was “Dose-dependent effect”, the “growth inhibition (GI)” value [25] was “Dose-dependent effect” and the “growth inhibition (GI)” value [26] was “Dose-dependent effect”. The “growth inhibition (GI)” value [27] was “Dose-dependent effect”, the “growth inhibition (GI)” value [28] was “Dose-dependent effect” and the “growth inhibition (GI)” value [29] was “Dose-dependent effect”. The “growth inhibition (GI)” value [30] was “Dose-dependent effect”, the Drug metabolism [31] was “metabolite_detected” and the Drug metabolism [32] was “metabolite_detected”.
In the case of `CC1([C@H](OC(=O)c2ccc(F)c3ccccc23)C(N)=O)CO1` (some centres not stated), the IC50 [1] is reported as 7 µM and the IC50 [2] is reported as 3 µM.
`CC1([C@H](OC(=O)c2cccc3ccccc23)C(N)=O)CO1` (some centres not stated) gave an IC50 [1] of 10 µM and an IC50 [2] of 5 µM.
In the case of `C=C(C)[C@@H](OC(=O)c1ccc(F)c2ccccc12)C(N)=O`, the IC50 [1] is reported as > 100 µM and the IC50 [2] is reported as > 100 µM.
`CC1([C@@H](OC(=O)c2cccc3ccccc23)C(N)=O)CO1` (some centres not stated) showed an IC50 [1] of 10 µM and an IC50 [2] of 9 µM.
With `C=C(C)[C@@H](OC(=O)c1ccc(C)c2ccccc12)C(N)=O` the IC50 [1] was > 100 µM and the IC50 [2] was > 100 µM.
`COc1ccc2c(OC)ccc(C(=O)O[C@H](C(N)=O)C3(C)CO3)c2c1` (some centres not stated) gave an IC50 [1] of 6 µM and an IC50 [2] of 3 µM.
For `CC1([C@@H](OC(=O)c2ccc(F)c3ccccc23)C(N)=O)CO1` (some centres not stated), the IC50 [1] was 7 µM and the IC50 [2] was 2 µM.
Work on `Cc1ccc(C(=O)O[C@H](C(N)=O)C2(C)CO2)c2ccccc12` (some centres not stated) yielded an IC50 [1] of 6 µM and an IC50 [2] of 3 µM.
With `C=C(C)[C@@H](OC(=O)c1cccc2ccccc12)C(N)=O` the IC50 [1] was > 100 µM and the IC50 [2] was > 100 µM.
`Cc1ccc(C(=O)O[C@@H](C(N)=O)C2(C)CO2)c2ccccc12` (some centres not stated) showed an IC50 [1] of 5 µM and an IC50 [2] of 9 µM.
With `COc1cc(C(=O)O[C@@H](C(N)=O)C2(C)CO2)c2cccc(C)c2c1` (some centres not stated) the IC50 [1] was 5.7 µM, the IC50 [2] was 6 µM and the Drug metabolism [33] was “metabolite_detected”. For the same compound, the Drug metabolism [4] was “metabolite_detected”.
With `C=C(C)[C@@H](OC(=O)c1ccc(OC)c2ccc(OC)cc12)C(N)=O` the IC50 [1] was > 100 µM and the IC50 [2] was > 100 µM.
